Results taken from paper PMC6097783, “β-N-Acetylglucosaminidase MthNAG from Myceliophthora thermophila C1, a thermostable enzyme for production of N-acetylglucosamine from chitin” (Applied Microbiology and Biotechnology, 2018).
Values belong to the molecule of their own block, whether it stands above or below them.

Legend:
MthNAG [1] = target: T1, MthNAG (Thermothelomyces thermophilus, UniProt G2Q2L6); assay: substrate inhibition kinetics, released GlcNAc by HPAEC; type: biochemical; conditions: citrate-phosphate buffer 0.1 M, pH 4.5, 50 °C
T1 construct: gene MYCTH_2294755; full-length GH20 secreted enzyme, 582-residue precursor with 21-residue signal peptide; homologously overexpressed in M. thermophila C1, purified by IEX and SEC, no tag told; most similar to XP_003658680 of strain ATCC 42464
T1 sequence (G2Q2L6 22-582): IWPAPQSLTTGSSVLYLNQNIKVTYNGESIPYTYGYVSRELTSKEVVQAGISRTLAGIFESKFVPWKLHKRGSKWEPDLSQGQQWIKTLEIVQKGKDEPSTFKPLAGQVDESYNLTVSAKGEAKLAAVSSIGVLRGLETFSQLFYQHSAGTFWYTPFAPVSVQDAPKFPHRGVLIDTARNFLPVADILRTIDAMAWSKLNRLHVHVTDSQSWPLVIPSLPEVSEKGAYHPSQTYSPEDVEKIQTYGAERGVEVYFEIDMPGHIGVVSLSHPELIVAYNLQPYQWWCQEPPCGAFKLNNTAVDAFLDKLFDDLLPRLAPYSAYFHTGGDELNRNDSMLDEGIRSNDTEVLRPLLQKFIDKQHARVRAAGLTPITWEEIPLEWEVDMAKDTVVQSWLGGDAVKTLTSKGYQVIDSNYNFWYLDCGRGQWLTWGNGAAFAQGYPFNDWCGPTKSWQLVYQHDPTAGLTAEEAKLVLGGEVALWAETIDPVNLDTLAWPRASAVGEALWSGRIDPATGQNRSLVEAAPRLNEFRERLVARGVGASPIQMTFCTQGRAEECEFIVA

MthNAG [2] = target: T1, MthNAG; assay: substrate inhibition kinetics, released p-nitrophenol at […] nm; type: biochemical; conditions: citrate-phosphate buffer 0.1 M, pH 4, 50 °C
purified protein = substrate: CC(=O)N[C@H]1[C@H](Oc2ccc([N+](=O)[O-])cc2)O[C@H](CO)[C@@H](O)[C@@H]1O; assay: purified protein; type: biochemical, Thermothelomyces thermophilus; conditions: citrate-phosphate buffer 0.1 M, pH 4, 50 °C

Ki (MthNAG [1]): 500 ± 110 µM
Molecule: CC(=O)N[C@H]1[C@H](O[C@H]2[C@H](O)[C@@H](NC(C)=O)C(O)O[C@@H]2CO)O[C@H](CO)[C@@H](O)[C@@H]1O (stereo partly shown) [(GlcNAc)2]

Ki (MthNAG [2]): 1960 ± 260 µM
Molecule: CC(=O)N[C@H]1[C@H](Oc2ccc([N+](=O)[O-])cc2)O[C@H](CO)[C@@H](O)[C@@H]1O [GlcNAc-pNP, 4-nitrophenyl-N-acetylglucosamine]

B1: MthNAG (Thermothelomyces thermophilus ATCC 42464) (protein)
chain: IWPAPQSLTTGSSVLYLNQNIKVTYNGESIPYTYGYVSRELTSKEVVQAGISRTLAGIFESKFVPWKLHKRGSKWEPDLSQGQQWIKTLEIVQKGKDEPSTFKPLAGQVDESYNLTVSAKGEAKLAAVSSIGVLRGLETFSQLFYQHSAGTFWYTPFAPVSVQDAPKFPHRGVLIDTARNFLPVADILRTIDAMAWSKLNRLHVHVTDSQSWPLVIPSLPEVSEKGAYHPSQTYSPEDVEKIQTYGAERGVEVYFEIDMPGHIGVVSLSHPELIVAYNLQPYQWWCQEPPCGAFKLNNTAVDAFLDKLFDDLLPRLAPYSAYFHTGGDELNRNDSMLDEGIRSNDTEVLRPLLQKFIDKQHARVRAAGLTPITWEEIPLEWEVDMAKDTVVQSWLGGDAVKTLTSKGYQVIDSNYNFWYLDCGRGQWLTWGNGAAFAQGYPFNDWCGPTKSWQLVYQHDPTAGLTAEEAKLVLGGEVALWAETIDPVNLDTLAWPRASAVGEALWSGRIDPATGQNRSLVEAAPRLNEFRERLVARGVGASPIQMTFCTQGRAEECEFIVA
notes: full-length GH20 secreted enzyme, 582-residue precursor with 21-residue signal peptide; homologously overexpressed in M. thermophila C1, purified by IEX and SEC, no tag told; most similar to XP_003658680 of strain ATCC 42464
Km (purified protein): 60 ± 10 µM
kcat (purified protein): 14.0 ± 0.7 s⁻¹
